Strand notation (5' to 3'): a small letter for the sugar, then the base; units joined by * are phosphorothioate-linked, units joined directly phosphodiester-linked; [ ] holds rarer units or linkages, { } end groups; capitals alone tell only the bases. e = 2'-O-(2-methoxyethyl) (MOE); [5mC] = 5-methylcytosine; d = 2'-deoxy (DNA)
Assays:
human PKK mRNA [1] = assay: Dose-dependent antisense inhibition of human PKK in HepaRG cells, 0.12-10.00 uM (Example 4); assay type: cell-based; conditions: electroporation, ~16 h
Procedure: Cells were plated at a density of 20,000 cells per well and transfected using electroporation with 0.12 μM, 0.37 μM, 1.11 μM, 3.33 μM, and 10.00 μM concentrations of antisense oligonucleotide. After a treatment period of approximately 16 hours, RNA was isolated from the cells and PKK mRNA levels were measured by quantitative real-time PCR. Human PKK primer probe set RTS3454 was used to measure mRNA levels. PKK mRNA levels were adjusted according to total RNA content, as measured by RIBOGREEN®. The antisense oligonucleotides were tested in a series of experiments that had similar culture conditions. Results are presented as percent inhibition of PKK, relative to untreated control cells.
The half maximal inhibitory concentration (IC50) of each oligonucleotide is also presented.

human PKK mRNA [2] = assay: Antisense inhibition of human PKK mRNA in HepaRG cells, 3,000 nM (Example 1); assay type: cell-based; conditions: relative to untreated control cells
Method in brief: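 HepaRG cells, 20,000 per well, were electroporated with 3,000 nM 5-10-5 MOE gapmer (phosphorothioate, 5-methylcytosine). After about 24 h, PKK mRNA was measured by qRT-PCR with primer probe set RTS3454 and normalised to RIBOGREEN total RNA. Values are percent inhibition versus untreated cells.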

[3] = Table 2, PKK mRNA, HepaRG cells, 3,000 nM, electroporation, ~24 h
[4] = Table 1, PKK mRNA, HepaRG cells, 3,000 nM, electroporation, ~24 h
[5] = Table 3, HepaRG cells, electroporation with 3,000 nM antisense oligonucleotide, approx. 24 hours, PKK mRNA by RT-PCR (RTS3454)
[6] = Table 4, HepaRG cells, electroporation with 3,000 nM antisense oligonucleotide, approx. 24 hours, PKK mRNA by RT-PCR (RTS3454)

| Substance | percent inhibition of PKK at 0.12 μM (human PKK mRNA [1]; Table 33, 0.12 μM) [%] | percent inhibition of PKK at 0.37 μM (human PKK mRNA [1]; Table 33, 0.37 μM) [%] | percent inhibition of PKK at 1.11 μM (human PKK mRNA [1]; Table 33, 1.11 μM) [%] | percent inhibition of PKK at 3.33 μM (human PKK mRNA [1]; Table 33, 3.33 μM) [%] | percent inhibition of PKK at 10.00 μM (human PKK mRNA [1]; Table 33, 10.00 μM) [%] | IC50 (human PKK mRNA [1]; Table 33, PKK mRNA) [nM] | % inhibition (human PKK mRNA [2]; [3]) [%] | percent inhibition of PKK at 0.12 μM (human PKK mRNA [1]; Table 32, 0.12 μM) [%] | percent inhibition of PKK at 0.37 μM (human PKK mRNA [1]; Table 32, 0.37 μM) [%] | percent inhibition of PKK at 1.11 μM (human PKK mRNA [1]; Table 32, 1.11 μM) [%] | percent inhibition of PKK at 3.33 μM (human PKK mRNA [1]; Table 32, 3.33 μM) [%] | percent inhibition of PKK at 10.00 μM (human PKK mRNA [1]; Table 32, 10.00 μM) [%] | IC50 (human PKK mRNA [1]; Table 32, PKK mRNA) [nM] | % inhibition (human PKK mRNA [2]; [4]) [%] | % inhibition (human PKK mRNA [2]; [5]) [%] | % inhibition (human PKK mRNA [2]; [6]) [%] |
| --- | --- | --- | --- | --- | --- | --- | --- | --- | --- | --- | --- | --- | --- | --- | --- | --- |
| 531069 (e[5mC]*e[5mC]*eA*eG*eT*d[5mC]*d[5mC]*dA*dT*dG*dT*dA*d[5mC]*dT*d[5mC]*eA*eG*e[5mC]*eG*eA; antisense) [compound 531069] | 19 | 39 | 48 | 76 | 83 | 900 | 56 | – | – | – | – | – | – | – | – | – |
| 530959 (antisense eT*e[5mC]*eA*eA*e[5mC]*dA*d[5mC]*dT*dG*d[5mC]*dT*dA*dA*d[5mC]*d[5mC]*eT*eT*eA*eG*eA) [compound 530959] | – | – | – | – | – | – | – | 12 | 27 | 53 | 80 | 94 | 900 | 60 | – | – |
| 530967 (antisense e[5mC]*eA*eA*e[5mC]*e[5mC]*dA*dA*dT*dT*dT*d[5mC]*dT*dG*dA*dA*eA*eG*eG*eG*e[5mC]) [compound 530967] | – | – | – | – | – | – | – | 30 | 36 | 48 | 82 | 91 | 700 | 69 | – | – |
| 486847 (antisense eA*eG*eG*e[5mC]*eA*dT*dA*dT*dT*dG*dG*dT*dT*dT*dT*eT*eG*eG*eA*eA) [compound 486847] | – | – | – | – | – | – | 78 | 0 | 34 | 48 | 71 | 87 | 1100 | – | – | – |
| 531121 (antisense eT*eT*eG*eG*eT*d[5mC]*dT*dA*d[5mC]*dA*dG*dA*dT*dT*d[5mC]*eA*eA*eT*eG*e[5mC]) [compound 531121] | 0 | 13 | 47 | 69 | 79 | 1500 | – | – | – | – | – | – | – | – | 72 | – |
| 531078 (eA*eG*e[5mC]*eA*eG*d[5mC]*dT*d[5mC]*dT*dG*dA*dG*dT*dG*d[5mC]*eA*e[5mC]*eT*eG*eT; antisense) [compound 531078] | – | – | – | – | – | – | 77 | 10 | 27 | 54 | 69 | 92 | 1100 | – | – | – |
| 531002 (eG*eA*eG*e[5mC]*eT*d[5mC]*d[5mC]*d[5mC]*dT*dT*dG*dT*dG*dT*d[5mC]*e[5mC]*e[5mC]*eA*eT*eA; antisense) [compound 531002] | – | – | – | – | – | – | – | 6 | 28 | 58 | 82 | 86 | 900 | 85 | – | – |
| 531235 (eT*e[5mC]*eA*e[5mC]*eT*dG*dT*dA*d[5mC]*dT*dA*dG*dT*dT*dT*e[5mC]*e[5mC]*eT*eA*eT; antisense) [compound 531235] | 27 | 55 | 62 | 84 | 95 | 400 | – | – | – | – | – | – | – | – | – | 86 |
| 531198 (eG*eG*eG*eA*eT*dT*dT*dT*dG*d[5mC]*dT*dG*dA*dA*dG*e[5mC]*eT*eG*eG*eT; antisense) [compound 531198] | 0 | 35 | 62 | 76 | 60 | 800 | – | – | – | – | – | – | – | – | – | 73 |
| 530988 (eT*e[5mC]*e[5mC]*eA*eA*dA*dG*dT*d[5mC]*dA*dA*d[5mC]*dT*d[5mC]*d[5mC]*e[5mC]*eG*eG*eG*eT; antisense) [compound 530988] | – | – | – | – | – | – | – | 0 | 25 | 54 | 86 | 78 | 900 | 76 | – | – |
| 531026 (antisense eA*eT*e[5mC]*eA*eT*dG*dA*dT*dT*d[5mC]*d[5mC]*d[5mC]*dT*dT*d[5mC]*eT*eG*eA*eG*eA) [compound 531026] | 23 | 26 | 49 | 75 | 85 | 1000 | 73 | – | – | – | – | – | – | – | – | – |
| 531172 (antisense eT*eT*e[5mC]*eA*eA*dG*d[5mC]*d[5mC]*dT*dG*dG*dG*d[5mC]*dA*dG*e[5mC]*eA*e[5mC]*eA*eG) [compound 531172] | 0 | 16 | 37 | 60 | 60 | 2100 | – | – | – | – | – | – | – | – | – | 71 |
| 530970 (antisense eT*eT*eG*eG*eT*dG*dT*dG*d[5mC]*d[5mC]*dA*d[5mC]*dT*dT*dT*e[5mC]*eA*eG*eA*eT) [compound 530970] | – | – | – | – | – | – | – | 1 | 0 | 66 | 76 | 84 | 1000 | 74 | – | – |
| 531232 (e[5mC]*eT*eG*eT*eA*d[5mC]*dT*dA*dG*dT*dT*dT*d[5mC]*d[5mC]*dT*eA*eT*eA*eA*e[5mC]; antisense) [compound 531232] | 15 | 26 | 40 | 62 | 76 | 1700 | – | – | – | – | – | – | – | – | – | 85 |
| 531233 (eA*e[5mC]*eT*eG*eT*dA*d[5mC]*dT*dA*dG*dT*dT*dT*d[5mC]*d[5mC]*eT*eA*eT*eA*eA; antisense) [compound 531233] | 17 | 27 | 50 | 77 | 84 | 1000 | – | – | – | – | – | – | – | – | – | 86 |
| 530971 (antisense eG*eG*eA*eA*e[5mC]*dT*dT*dG*dG*dT*dG*dT*dG*d[5mC]*d[5mC]*eA*e[5mC]*eT*eT*eT) [compound 530971] | – | – | – | – | – | – | – | 12 | 40 | 52 | 66 | 70 | 1300 | 85 | – | – |
| 530965 (antisense eG*eG*e[5mC]*eA*e[5mC]*dA*dG*dG*dG*d[5mC]*dT*dT*d[5mC]*dA*dG*eT*eG*eA*eG*eA) [compound 530965] | – | – | – | – | – | – | – | 8 | 5 | 63 | 83 | 91 | 800 | 73 | – | – |
| 531123 (antisense eT*e[5mC]*e[5mC]*e[5mC]*eA*dG*d[5mC]*dT*d[5mC]*d[5mC]*dA*dG*dT*d[5mC]*dA*e[5mC]*e[5mC]*eA*e[5mC]*e[5mC]) [compound 531123] | 14 | 43 | 51 | 71 | 64 | 900 | – | – | – | – | – | – | – | – | 74 | – |
| 531055 (antisense e[5mC]*e[5mC]*e[5mC]*eT*eT*d[5mC]*dT*dT*dT*dA*dT*dA*dG*d[5mC]*d[5mC]*eA*eG*e[5mC]*eA*e[5mC]) [compound 531055] | 3 | 28 | 64 | 76 | 81 | 900 | 68 | – | – | – | – | – | – | – | – | – |

— US11840686B2, “Modulation of prekallikrein (PKK) expression” (Ionis Pharmaceuticals, Inc., priority 2013, dated 2023)
